Data reported in PubChem BioAssay AID248 (DTP/NCI, 2004).
“And” between values parts separate entries of the source, which are not always exact repeats. Equal values may be shown once. Inconclusive results and toxic doses are left out.

Tested on: L1210 leukemia ip in BDF1 mice, survival T/C
Experiment: NCI In Vivo Anticancer Drug Screen. Data for tumor model L1210 Leukemia (intraperitoneal) in B6D2F1 (BDF1) mice
Details: endpoint: mean survival time, higher = longer survival
Procedure, shortened: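 Transplanted-tumor mice were given test agent; controls received vehicle only. Survival readings from the two groups were divided (treated over control).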

[1] = dose: 100.0 mg/kg/injection, schedule: Q04DX002 (ip), vehicle: saline with Tween-80
[2] = dose: 200.0 mg/kg/injection, schedule: Q04DX002 (ip), vehicle: saline with Tween-80
[3] = dose: 400.0 mg/kg/injection, schedule: Q04DX002 (ip), vehicle: saline with Tween-80
[4] = dose: 100.0 mg/kg/injection, schedule: Q01DX001 (ip), vehicle: saline
[5] = dose: 200.0 mg/kg/injection, schedule: Q01DX001 (ip), vehicle: saline
[6] = dose: 400.0 mg/kg/injection, schedule: Q01DX001 (ip), vehicle: saline
[7] = dose: 100.0 mg/kg/injection, schedule: Q01DX009 (ip), vehicle: saline with Tween-80
[8] = dose: 100.0 mg/kg/injection, schedule: Q04DX003 (ip), vehicle: saline with Tween-80
[9] = dose: 200.0 mg/kg/injection, schedule: Q01DX009 (ip), vehicle: saline with Tween-80
[10] = dose: 200.0 mg/kg/injection, schedule: Q04DX003 (ip), vehicle: saline with Tween-80
[11] = dose: 400.0 mg/kg/injection, schedule: Q04DX003 (ip), vehicle: saline with Tween-80
[12] = dose: 400.0 mg/kg/injection, schedule: Q01DX009 (ip), vehicle: saline with Tween-80
[13] = dose: 50.0 mg/kg/injection, schedule: Q01DX009 (ip), vehicle: saline
[14] = dose: 100.0 mg/kg/injection, schedule: Q01DX009 (ip), vehicle: saline
[15] = dose: 200.0 mg/kg/injection, schedule: Q01DX009 (ip), vehicle: saline
[16] = dose: 50.0 mg/kg/injection, schedule: Q01DX001 (ip), vehicle: saline

`CCC(Cl)COP(=O)(OCC(Cl)CC)C(C(C)C)P(=O)(OCC(Cl)CC)OCC(Cl)CC` (stereo not drawn) was tested, and the T/C [1] was 96 % of control, the T/C [2] was 100 % of control and the T/C [3] was 89 % of control.

For `CCOC(=O)C1OC1C1c2cccc3cccc(c23)C1C1OC1C(=O)OCC` (stereo not drawn), the T/C [4] was 107 % of control, the T/C [5] was 94 % of control and the T/C [6] was 102 % of control.

For `CCCC(C)(CC)C(=O)O` (stereo not drawn), the T/C (dose: 75.0 mg/kg/injection, schedule: Q01DX001 (ip), vehicle: acetone) was 108 % of control, the T/C (dose: 150.0 mg/kg/injection, schedule: Q01DX001 (ip), vehicle: acetone) was 101 % of control and the T/C (dose: 300.0 mg/kg/injection, schedule: Q01DX001 (ip), vehicle: acetone) was 98 % of control.

`C=CCNC(=S)Nc1cccc(C(C)OC(=O)NC(C)(C)C)c1` (stereo not drawn) was tested, and the T/C [7] was 106 % of control, the T/C [8] was 95 % of control and the T/C [9] was 107 % of control. The T/C [10] was 93 % of control and the T/C [11] was 94 % of control.

With `CCN=C(Nc1cccc(C2=NCCN2)c1)c1ccc(C(=NCC)Nc2cccc(C3=NCCN3)c2)cc1` the T/C (dose: 2.0 mg/kg/injection, schedule: Q01DX Z (ip), vehicle: carboxymethylcellulose (CMC)) was 109 % of control, the T/C (dose: 4.0 mg/kg/injection, schedule: Q01DX Z (ip), vehicle: carboxymethylcellulose (CMC)) was 95 % of control and the T/C (dose: 8.0 mg/kg/injection, schedule: Q01DX Z (ip), vehicle: carboxymethylcellulose (CMC)) was 103 % of control. For the same compound, the T/C (dose: 16.0 mg/kg/injection, schedule: Q01DX Z (ip), vehicle: carboxymethylcellulose (CMC)) was 107 % of control.

With `Cc1cccc(CC23CC4CC(CC(C4)C2)C3)c1` the T/C [7] was 91 % of control, the T/C [8] was 102 % of control and the T/C [9] was 90 % of control. The T/C [10] was 100 % of control, the T/C [12] was 95 % of control and the T/C [11] was 98 % of control.

For `O=C(C[n+]1ccccc1)c1cn(Cc2ccccc2)c2ccccc12`, the T/C (dose: 75.0 mg/kg/injection, schedule: Q01DX001 (ip), vehicle: other) was 98 % of control and the T/C (dose: 150.0 mg/kg/injection, schedule: Q01DX001 (ip), vehicle: other) was 97 % of control.

In the case of `O=C(O)CSC1=NCCN1`, the T/C (dose: 25.0 mg/kg/injection, schedule: Q01DX009 (ip), vehicle: saline) is reported as 91 % of control, the T/C [13] is reported as 92 % of control and the T/C (dose: 50.0 mg/kg/injection, schedule: Q04DX002 (ip), vehicle: saline) is reported as 106 % of control and 113 % of control. For the same compound, the T/C [14] was 90 % of control, the T/C (dose: 100.0 mg/kg/injection, schedule: Q04DX002 (ip), vehicle: saline) was 100 % of control and 113 % of control and the T/C [15] was 93 % of control. For the same compound, the T/C (dose: 200.0 mg/kg/injection, schedule: Q04DX002 (ip), vehicle: saline) was 260 % of control and 91 % of control, the T/C (dose: 400.0 mg/kg/injection, schedule: Q01DX009 (ip), vehicle: saline) was 91 % of control and the T/C (dose: 400.0 mg/kg/injection, schedule: Q04DX002 (ip), vehicle: saline) was 106 % of control.

`CCC(C)C(C(=O)OCCN(C)C)c1ccccc1` (stereo not drawn) was tested, and the T/C [8] was 98 % of control and the T/C [10] was 92 % of control.

In the case of `CCCCCCC#CC(=O)OCCCC`, the T/C [1] is reported as 93 % of control, the T/C [2] is reported as 93 % of control and the T/C [3] is reported as 90 % of control.

`CCCC(=O)Nc1cc([N+](=O)[O-])ccc1OC` was tested, and the T/C (dose: 100.0 mg/kg/injection, schedule: Q01DX009 (ip), vehicle: Klucel (hydroxypropylcellulose) (HPC)) was 104 % of control, the T/C (dose: 200.0 mg/kg/injection, schedule: Q01DX009 (ip), vehicle: Klucel (hydroxypropylcellulose) (HPC)) was 104 % of control and the T/C (dose: 400.0 mg/kg/injection, schedule: Q01DX009 (ip), vehicle: Klucel (hydroxypropylcellulose) (HPC)) was 98 % of control.

For `Cc1cn(C2CC(CO)CC2O)c(=O)[nH]c1=O` (stereo not drawn), the T/C [13] was 104 % of control, the T/C [14] was 107 % of control and the T/C [15] was 107 % of control.

In the case of `Nc1ccnc(=S)[nH]1`, the T/C (dose: 100.0 mg/kg/injection, schedule: Q01DX001 (ip), vehicle: Klucel (hydroxypropylcellulose) (HPC)) is reported as 92 % of control, the T/C (dose: 200.0 mg/kg/injection, schedule: Q01DX001 (ip), vehicle: Klucel (hydroxypropylcellulose) (HPC)) is reported as 97 % of control and the T/C (dose: 250.0 mg/kg/injection, schedule: Q01DX Z (ip), vehicle: methylcellulose (MC)) is reported as 101 % of control. The T/C (dose: 400.0 mg/kg/injection, schedule: Q01DX001 (ip), vehicle: Klucel (hydroxypropylcellulose) (HPC)) was 94 % of control.

For `CC(=O)Nc1cc2c(cc1CC(=O)O)OCO2`, the T/C [16] was 101 % of control, the T/C [4] was 95 % of control and the T/C [5] was 95 % of control. For the same compound, the T/C [6] was 101 % of control.

For `NC(Cc1c[nH]c2ccc(F)cc12)C(=O)O` (stereo not drawn), the T/C (dose: 100.0 mg/kg/injection, schedule: Q01DX001 (ip), vehicle: other) was 95 % of control, the T/C (dose: 100.0 mg/kg/injection, schedule: Q04DX003 (ip), vehicle: other) was 119 % of control and the T/C (dose: 200.0 mg/kg/injection, schedule: Q01DX001 (ip), vehicle: other) was 95 % of control. The T/C (dose: 200.0 mg/kg/injection, schedule: Q04DX003 (ip), vehicle: other) was 102 % of control and the T/C (dose: 400.0 mg/kg/injection, schedule: Q01DX001 (ip), vehicle: other) was 89 % of control.

`O=C(O)/C(=C\c1[nH]c(=O)[nH]c(=O)c1Br)NC(=O)c1ccccc1` was tested, and the T/C [8] was 104 % of control, the T/C [10] was 103 % of control and the T/C [11] was 101 % of control.

`NCC(N)C(=O)O` (stereo not drawn) was tested, and the T/C [4] was 94 % of control, the T/C [5] was 97 % of control and the T/C [6] was 94 % of control.

In the case of `NC(N)=NC(N)=Nc1ccc2c(Cl)c(Cl)ccc2c1`, the T/C (dose: 2.5 mg/kg/injection, schedule: Q01DX009 (ip), vehicle: saline sonified) is reported as 92 % of control, the T/C (dose: 5.0 mg/kg/injection, schedule: Q01DX009 (ip), vehicle: saline sonified) is reported as 101 % of control and the T/C (dose: 10.0 mg/kg/injection, schedule: Q01DX009 (ip), vehicle: saline sonified) is reported as 101 % of control. The T/C (dose: 12.5 mg/kg/injection, schedule: Q04DX003 (ip), vehicle: saline with Tween-80) was 105 % of control, the T/C (dose: 25.0 mg/kg/injection, schedule: Q04DX003 (ip), vehicle: saline with Tween-80) was 114 % of control and the T/C (dose: 50.0 mg/kg/injection, schedule: Q04DX003 (ip), vehicle: saline with Tween-80) was 100 % of control. For the same compound, the T/C (dose: 100.0 mg/kg/injection, schedule: Q04DX003 (ip), vehicle: saline sonified) was 101 % of control.

In the case of `NNC(=O)NN`, the T/C [7] is reported as 87 % of control, the T/C [9] is reported as 90 % of control and the T/C [12] is reported as 87 % of control.

With `Cc1ccc(C)c(CCCCS(N)(=O)=O)c1` the T/C (dose: 100.0 mg/kg/injection, schedule: Q04DX003 (ip), vehicle: Klucel (hydroxypropylcellulose) (HPC)) was 100 % of control, the T/C (dose: 200.0 mg/kg/injection, schedule: Q04DX003 (ip), vehicle: Klucel (hydroxypropylcellulose) (HPC)) was 104 % of control and the T/C (dose: 400.0 mg/kg/injection, schedule: Q04DX003 (ip), vehicle: Klucel (hydroxypropylcellulose) (HPC)) was 100 % of control.

With `c1ccc(CCCCCCCCCCc2ccccc2)cc1` the T/C (dose: 100.0 mg/kg/injection, schedule: Q01DX001 (ip), vehicle: saline with Tween-80) was 91 % of control, the T/C (dose: 200.0 mg/kg/injection, schedule: Q01DX001 (ip), vehicle: saline with Tween-80) was 95 % of control and the T/C (dose: 400.0 mg/kg/injection, schedule: Q01DX001 (ip), vehicle: saline with Tween-80) was 98 % of control.

In the case of `COC(=O)CCCc1c[nH]c2ccccc12`, the T/C (dose: 100.0 mg/kg/injection, schedule: Q01DX009 (ip), vehicle: other) is reported as 93 % of control, the T/C (dose: 200.0 mg/kg/injection, schedule: Q01DX009 (ip), vehicle: other) is reported as 100 % of control and the T/C (dose: 400.0 mg/kg/injection, schedule: Q01DX009 (ip), vehicle: other) is reported as 90 % of control.

In the case of `Cn1nc(-c2ccc([N+](=O)[O-])o2)nc1N`, the T/C [16] is reported as 98 % of control, the T/C [4] is reported as 96 % of control and the T/C [5] is reported as 98 % of control. For the same compound, the T/C [6] was 104 % of control.
